From the supplement of paper PMC10307832

How the values were obtained:
Experiment in all cases: relative viability (nuclei count vs DMSO), 5 days (fraction); higher = more cells survive
[1] = compound: C1/C(=C\C2=CC=CS2)/C(=O)/C(=C/C3=CC=CS3)/C1 + CC(C)C[C@H](NC(=O)[C@H](Cc1ccccc1)NC(=O)c1cnccn1)B(O)O [Bortezomib] (partner 0.002 µM)
Outline: (§1)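 Values are medians from duplicate plates. Each reflects relative viability, defined as the nuclei count of treated wells over that of vehicle wells. Lung cancer cell lines in 1536-well plates were pin-tool dosed one day after seeding with one drug alone or with a fixed anchor-drug dose plus five library-drug doses (not always all listed) in √10 steps, then fixed, stained and imaged at 4× after 5 days.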

TPCA-1 + Bortezomib = compound: C1=CC(=CC=C1C2=CC(=C(S2)NC(=O)N)C(=O)N)F [TPCA-1] + CC(C)C[C@H](NC(=O)[C@H](Cc1ccccc1)NC(=O)c1cnccn1)B(O)O [Bortezomib] (partner 0.002 µM)
Outline: as §1

TPCA-1 + Crizotinib = compound: C1=CC(=CC=C1C2=CC(=C(S2)NC(=O)N)C(=O)N)F [TPCA-1] + C[C@@H](Oc1cc(-c2cnn(C3CCNCC3)c2)cnc1N)c1c(Cl)ccc(F)c1Cl [Crizotinib] (partner 1 µM)
Outline: as §1

TPCA-1 + Dasatinib = compound: C1=CC(=CC=C1C2=CC(=C(S2)NC(=O)N)C(=O)N)F [TPCA-1] + Cc1nc(Nc2ncc(C(=O)Nc3c(C)cccc3Cl)s2)cc(N2CCN(CCO)CC2)n1 [Dasatinib] (partner 0.075 µM)
Outline: as §1

Cell Line	relative viability ([1]; first compound 0.2 µM)	relative viability ([1]; first compound 0.6325 µM)	relative viability ([1]; first compound 2 µM)	relative viability ([1]; first compound 6.325 µM)	relative viability ([1]; first compound 20 µM)	relative viability (TPCA-1 + Bortezomib; first compound 0.04 µM)	relative viability (TPCA-1 + Bortezomib; first compound 0.1265 µM)	relative viability (TPCA-1 + Bortezomib; first compound 0.4 µM)	relative viability (TPCA-1 + Bortezomib; first compound 1.265 µM)	relative viability (TPCA-1 + Bortezomib; first compound 4 µM)	relative viability (TPCA-1 + Crizotinib; first compound 0.04 µM)	relative viability (TPCA-1 + Crizotinib; first compound 0.1265 µM)	relative viability (TPCA-1 + Crizotinib; first compound 0.4 µM)	relative viability (TPCA-1 + Crizotinib; first compound 1.265 µM)	relative viability (TPCA-1 + Crizotinib; first compound 4 µM)	relative viability (TPCA-1 + Dasatinib; first compound 0.04 µM)	relative viability (TPCA-1 + Dasatinib; first compound 0.1265 µM)	relative viability (TPCA-1 + Dasatinib; first compound 0.4 µM)	relative viability (TPCA-1 + Dasatinib; first compound 1.265 µM)	relative viability (TPCA-1 + Dasatinib; first compound 4 µM)
NCI-H1563	1.01	0.912	1.11	0.86	0.859	0.924	0.875	0.836	0.741	0.793	0.945	0.954	0.89	0.953	0.811	0.42	0.453	0.468	0.455	0.452
LXF-289	1.01	0.988	0.971	0.83	0.991	1.03	0.941	0.987	1.01	0.781	0.84	0.785	0.794	0.806	0.537	0.24	0.225	0.267	0.134	0.104
LU99A	1.21	1.13	1.26	0.668	0.941	1.32	1.13	1.01	0.971	0.48	0.613	0.534	0.47	0.506	0.249	0.509	0.522	0.619	0.356	0.366
PC-14	0.904	0.763	0.837	0.742	0.98	0.903	0.787	0.936	0.785	0.574	0.818	0.864	0.891	0.832	0.615	0.324	0.245	0.283	0.144	0.0724
NCI-H2085	1.16	1.08	1.15	1.02	1.03	1.13	1.06	1.04	0.965	1.01	0.921	0.793	0.872	0.765	0.78	0.267	0.262	0.246	0.265	0.257
HCC-78	0.623	0.464	0.534	0.463	0.301	0.437	0.439	0.531	0.27	0.281	0.362	0.341	0.345	0.338	0.307	0.485	0.452	0.402	0.413	0.297
NCI-H2126	1.16	1.1	1.21	0.994	1.1	1.15	1.04	1.07	1.06	1.09	1.08	0.93	1.07	0.945	0.951	0.617	0.531	0.602	0.549	0.437
H3255	0.778	0.82	0.71	0.84	0.618	0.872	0.758	0.701	0.595	0.691	0.815	0.882	0.863	0.674	0.848	0.421	0.352	0.431	0.305	0.301
